# Bridge positions count the residues as written; N and C are the ends. Ends that are not written are not given here.
# What was measured:
# [1] = target: T1, elastase (Homo sapiens, UniProt P08246); test: Effect on elastase activity (chromogenic substrate assay; Dixon plot Ki); assay type: biochemical
# T1 construct: purchased Sigma-Aldrich E8140
# T1 sequence (P08246 30-267): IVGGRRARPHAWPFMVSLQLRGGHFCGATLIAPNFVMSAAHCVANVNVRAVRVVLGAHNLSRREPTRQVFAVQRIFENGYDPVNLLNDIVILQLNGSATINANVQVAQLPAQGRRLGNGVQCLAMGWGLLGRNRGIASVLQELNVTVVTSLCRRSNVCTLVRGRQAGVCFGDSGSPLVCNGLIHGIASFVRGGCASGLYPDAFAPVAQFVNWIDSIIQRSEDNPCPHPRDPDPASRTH
# From the text: (§1) Thus, we examined the effects of poeciguamerin on proteases such as FXIIa, kallikrein, trypsin, thrombin, FXa, and elastase using appropriate chromogenic substrates.
# (§2) Figure 3 Effects of poeciguamerin on elastase and coagulation. Effects of natural poeciguamerin on elastase (A), FXIIa (B), kallikrein (C), FXa (D), trypsin (E), and thrombin (F) enzymatic activities.
# (§3) We mixed poeciguamerin with specific chromogenic substrates and proteases to evaluate the effect of poeciguamerin on various enzymatic activities. […] The proteases and different concentrations of natural poeciguamerin (0, 0.5, 1, 2, 10, 20, 40 μM) were incubated in a total volume of 60 μL in buffer (50 mM Tris-HCl pH 7.4) for 5 min at room temperature. Subsequently, a buffer containing the appropriate enzyme substrate was added to a total volume of 100 μL. Using an enzyme marker, GEN CHS v1.09 software detected OD405 at 30-s intervals and recorded for 10 min to calculate enzyme kinetics.
# [2] = target: T2, FXIIa (Homo sapiens, UniProt P00748); test: Effect on FXIIa activity (chromogenic substrate assay; Dixon plot Ki); assay type: biochemical; details: natural poeciguamerin 0-40 μM; FXIIa 10 nM; S-2302 0.2 mM; 50 mM Tris-HCl pH 7.4; 5 min, room temperature; OD405 for 10 min
# T2 construct: purchased Enzyme Research Laboratories 1212a
# T2 sequence (P00748 373-615 limits assumed): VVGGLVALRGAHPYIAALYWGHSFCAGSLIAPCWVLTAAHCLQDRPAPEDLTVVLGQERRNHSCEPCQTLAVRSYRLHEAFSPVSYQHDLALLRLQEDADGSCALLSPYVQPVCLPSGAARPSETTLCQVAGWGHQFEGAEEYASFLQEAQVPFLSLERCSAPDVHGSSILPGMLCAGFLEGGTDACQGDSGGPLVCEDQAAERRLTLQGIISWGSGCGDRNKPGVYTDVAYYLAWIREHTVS
# T2 sequence (P00748 20-372 partner limits assumed): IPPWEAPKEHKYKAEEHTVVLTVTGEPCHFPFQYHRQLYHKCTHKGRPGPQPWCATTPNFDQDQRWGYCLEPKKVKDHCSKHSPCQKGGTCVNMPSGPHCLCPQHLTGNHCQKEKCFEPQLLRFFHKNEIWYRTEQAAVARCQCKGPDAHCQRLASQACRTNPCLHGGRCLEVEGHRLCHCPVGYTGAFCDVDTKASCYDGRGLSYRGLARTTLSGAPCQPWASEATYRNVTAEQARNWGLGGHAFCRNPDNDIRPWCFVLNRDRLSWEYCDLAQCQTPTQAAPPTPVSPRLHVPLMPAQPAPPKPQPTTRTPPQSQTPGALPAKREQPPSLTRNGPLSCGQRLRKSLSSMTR
# From the text: as §1, §2, §3
# [3] = target: T3, kallikrein (Homo sapiens, UniProt P03952); test: Effect on kallikrein activity (chromogenic substrate assay; Dixon plot Ki); assay type: biochemical; details: natural poeciguamerin 0-40 μM; kallikrein 80 nM; S-2302 0.2 mM; 50 mM Tris-HCl pH 7.4; 5 min, room temperature; OD405 for 10 min
# T3 construct: purchased Enzyme Research Laboratories 1303
# T3 sequence (P03952 391-638 limits assumed): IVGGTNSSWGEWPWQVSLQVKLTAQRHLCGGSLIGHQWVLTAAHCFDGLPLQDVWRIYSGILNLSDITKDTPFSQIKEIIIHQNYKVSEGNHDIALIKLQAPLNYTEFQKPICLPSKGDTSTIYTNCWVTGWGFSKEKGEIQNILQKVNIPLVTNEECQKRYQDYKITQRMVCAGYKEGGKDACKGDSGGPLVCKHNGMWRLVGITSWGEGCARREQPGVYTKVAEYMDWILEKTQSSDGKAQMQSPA
# T3 sequence (P03952 20-390 partner limits assumed): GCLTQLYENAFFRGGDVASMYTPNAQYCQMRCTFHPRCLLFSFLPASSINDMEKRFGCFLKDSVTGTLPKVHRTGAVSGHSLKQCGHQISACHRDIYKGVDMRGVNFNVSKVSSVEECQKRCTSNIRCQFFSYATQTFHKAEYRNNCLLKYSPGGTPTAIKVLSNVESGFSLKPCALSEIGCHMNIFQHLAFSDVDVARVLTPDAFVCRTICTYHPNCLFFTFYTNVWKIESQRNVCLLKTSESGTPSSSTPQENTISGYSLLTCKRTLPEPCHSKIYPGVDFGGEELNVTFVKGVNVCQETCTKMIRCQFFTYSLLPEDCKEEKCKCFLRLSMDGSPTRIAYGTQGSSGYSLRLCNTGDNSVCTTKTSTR
# From the text: as §1, §2, §3
# [4] = tested on: FXa; test: Effect on FXa activity (chromogenic substrate assay); assay type: biochemical; details: natural poeciguamerin 0-40 μM; FXa 20 nM; S-2222 0.2 mM; 50 mM Tris-HCl pH 7.4; 5 min, room temperature; OD405 for 10 min
# Description: as §2
# (§4) We mixed poeciguamerin with specific chromogenic substrates and proteases to evaluate the effect of poeciguamerin on various enzymatic activities. These enzymes and substrates included FXIIa (10 nM, 1212a, Enzyme Research Laboratories, South Bend, IN, USA; substrate: 0.2 mM, S-2302, Chromogenix, Milan, Italy), kallikrein (80 nM, 1303, Enzyme Research Laboratories, South Bend, IN, USA; substrate: 0.2 mM, S-2302, Chromogenix, Milan, Italy), trypsin (0.8 μM, T2600000, Sigma-Aldrich, St. Louis, MO, USA; substrate: 0.2 mM, S-2222, Chromogenix, Milan, Italy), thrombin (10 nM, 1002a, Enzyme Research Laboratories, South Bend, IN, USA; substrate: 0.2 mM, S-2238, Chromogenix, Milan, Italy), FXa (20 nM, 1011, Enzyme Research Laboratories, South Bend, IN, USA; substrate: 0.2 mM, S-2222, Chromogenix, Milan, Italy), elastase (0.4 μM, E8140, Sigma-Aldrich, St. Louis, MO, USA; substrate: 0.2 mM, 324696, Sigma-Aldrich, St. Louis, MO, USA), and other proteases were affected. […] Using an enzyme marker, GEN CHS v1.09 software detected OD405 at 30-s intervals and recorded for 10 min to calculate enzyme kinetics.
# [5] = tested on: trypsin; test: Effect on trypsin activity (chromogenic substrate assay); assay type: biochemical; details: natural poeciguamerin 0-40 μM; trypsin 0.8 μM; S-2222 0.2 mM; 50 mM Tris-HCl pH 7.4; 5 min, room temperature; OD405 for 10 min
# Description: as §2, §4
# [6] = tested on: thrombin; test: Effect on thrombin activity (chromogenic substrate assay); assay type: biochemical; details: natural poeciguamerin 0-40 μM; thrombin 10 nM; S-2238 0.2 mM; 50 mM Tris-HCl pH 7.4; 5 min, room temperature; OD405 for 10 min
# Description: as §2, §4
# [7] = tested on: mice; test: Foot-licking mouse model (elastase-induced pain); assay type: in vivo, mouse (female C57BL/6J); details: poeciguamerin 0, 6, 12 mg/kg i.v. 10 min before 25 μL elastase (6 mg/kg) in right hind paw; phase I 0–10 min and phase II 10–30 min; n = 5 per group
# Description: (§5) To evaluate the biological activity of poeciguamerin, we used the foot-licking mouse model and the tail-withdrawal mouse model. In the foot-licking mouse model, we placed the mice in a hot plate apparatus at a temperature of 55 ± 0.5 °C. The pain thresholds of the mice were measured twice every 15 min and hind paw licking was used as the observation parameter. Female mice showing a pain response within 10–30 s were selected and randomly divided into four groups. In the control group, 25 μL elastase (6 mg/kg) was injected into the base of the right hind paw, while in the experimental group, poeciguamerin (0, 6, 12 mg/kg) was injected intravenously 10 min before the elastase injection. […] The cumulative number of foot licks during the first phase (0–10 min) (Figure 5A) and the second phase (10–30 min) (Figure 5B) was recorded. […] The tails of the mice were stretched in hot water at 45 °C and the time of tail flicking was recorded.
# (§6) Figure 5 Effects of poeciguamerin on elastase or hot water bath-induced pain. […] The total time mice spent licking the paw was recorded during the I phase (0–10 min) (A) and the II phase (10–30 min) (B). n = 5 per group. Data are expressed as mean ± SEM and were subjected to an unpaired t-test, *** p < 0.001. […] The tails of the mice were stretched in hot water at 45 °C and the time of the tail flick was recorded (C). n = 5 per group. […]
# [8] = tested on: mice; test: Tail withdrawal mouse model (hot water bath); assay type: in vivo, mouse (female C57BL/6J); details: poeciguamerin 0, 6, 12 mg/kg, tail vein; water 45 °C; maximum time 15 s; n = 5 per group
# Description: as §5, §6
sequence,measurement,setting,value
"VDEKAEVTDDLCGDKTCSGAQVCQNDACVCSPVRCMIMCPNGFKLDENGCEYPCSCA (disulfide 12-23, 17-28, 30-50, 35-54, 39-56) [poeciguamerin]",effect on elastase activity,"[1]; natural poeciguamerin 0-40 μM, elastase 0.4 μM, substrate 324696 0.2 mM, 50 mM Tris-HCl pH 7.4, 5 min, room temperature, OD405 for 10 min",dose-dependent inhibition
same,inhibition of elastase activity by chromatographic peak fractions,"[1]; peak fractions of P. manillensis salivary gland secretions (Sephadex G-50, RP-HPLC C8, Mono S FPLC), elastase chromogenic substrate assay",significantly inhibited elastase activity
same,effect on FXIIa activity,[2],slight inhibition
same,effect on kallikrein activity,[3],slight inhibition
same,effect on FXa activity,[4],no inhibitory effects
same,effect on trypsin activity,[5],no inhibitory effects
same,effect on thrombin activity,[6],no inhibitory effects
same,effect on elastase-induced pain (cumulative foot licks),[7],attenuated this painful response
same,effect on hot water-induced pain response (tail withdrawal latency),[8],attenuated this pain response
